Experimental data reported in patent US20150010928A1, “MEANS AND METHODS FOR ASSESSING AN ENDOCRINE DISEASE OR DISORDER” (priority 2012, published 2015).
Marks after values point to notes of the source that are not given here.

Test system: male rats
Assay: Plasma metabolite profiling (GC-MS, LC-MS, SPE-LC-MS) in male rats dosed once daily over 28 days (OECD 407)
Type: in vivo, rat
Settings: high dose; for Mannose: Table 15c
Procedure, shortened: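 Polar and lipid fractions profiled by GC-MS and LC-MS/MRM, steroids by online SPE-LC-MS; pool-normalized data compared to controls by Welch test as treatment ratios and p-values.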

## C[C@]12C=CC3=C4CCC(=O)C=C4CCC3C1CC[C@@H]2O (stereo partly drawn) [Trenbolone]
m7, male rats
  Mannose: 1.35 *
m7, male rats, Table 16
  3,4-Dihydroxyphenylacetic acid (DOPAC): 1.08
  3,4-Dihydroxyphenylglycol (DOPEG): 1.12
  Androstenedione: 0.09 *
  Citrate: 0.89 *
  Glycerol, polar fraction: 0.66 *
  Histamine: 1.35
  Ketoleucine: 0.93
  Lactate: 0.68 *
  Metanephrine: 0.86
  Pantothenic acid: 0.65 *
  Phosphatidylcholine (C18:1,C18:2): 0.76 *
  Phosphatidylcholine No 04: 0.44 *
  TAG (C18:1,C18:2): 0.77 *
  Testosterone: 0.1 *
  Tyrosine: 0.93 *
m7, male rats, Table 15d
  3,4-Dihydroxyphenylacetic acid (DOPAC): 1.08
  18-Hydroxy-11-deoxycorticosterone: 0.4
  Glycerol phosphate, lipid fraction: 0.26 *
  Homovanillic acid (HVA): 0.6 *
  Kynurenic acid: 0.66 *
  Lysophosphatidylcholine (C18:1): 0.89 *
  Lysophosphatidylethanolamine (C22:5): 0.75 *
  Phosphate, lipid fraction: 0.47 *
  Phosphatidylcholine (C18:0,C18:1): 0.62 *
  Sphingomyelin (d18:1, C16:0): 0.23 *
  Sphingomyelin (d18:1,C23:0): 0.25 *
  Sphingomyelin (d18:1,C24:0): 0.37 *
  Sphingomyelin (d18:2,C18:0): 0.24 *
  TAG No 02: 0.57 *
  myo-Inositol, lipid fraction: 0.24 *
m7, Table 14b
  Cholesterol: 0.22
  Choline plasmalogen No 02: 0.44
  Lignoceric acid (C24:0): 0.14
  Sphingomyelin (d18:1, C16:0): 0.23
  Sphingomyelin (d18:2, C16:0): 0.22
  erythro-Sphingosine (d18:1): 0.1
m14, male rats
  Mannose: 1.4 *
m14, male rats, Table 16
  3,4-Dihydroxyphenylacetic acid (DOPAC): 0.75 *
  3,4-Dihydroxyphenylglycol (DOPEG): 0.86 *
  Androstenedione: 0.02 *
  Citrate: 0.89 *
  Glycerol, polar fraction: 0.51 *
  Histamine: 1.6
  Ketoleucine: 0.85 *
  Lactate: 0.94
  Metanephrine: 0.48 *
  Pantothenic acid: 0.82 *
  Phosphatidylcholine (C18:1,C18:2): 0.74 *
  Phosphatidylcholine No 04: 0.42 *
  TAG (C18:1,C18:2): 0.45 *
  Testosterone: 0.06 *
  Tyrosine: 1
m14, male rats, Table 15d
  3,4-Dihydroxyphenylacetic acid (DOPAC): 0.75 *
  18-Hydroxy-11-deoxycorticosterone: 0.47 *
  Glycerol phosphate, lipid fraction: 0.24 *
  Homovanillic acid (HVA): 0.5 *
  Kynurenic acid: 0.8 *
  Lysophosphatidylcholine (C18:1): 0.82 *
  Lysophosphatidylethanolamine (C22:5): 0.83 *
  Phosphate, lipid fraction: 0.44 *
  Phosphatidylcholine (C18:0,C18:1): 0.63 *
  Sphingomyelin (d18:1, C16:0): 0.22 *
  Sphingomyelin (d18:1,C23:0): 0.33 *
  Sphingomyelin (d18:1,C24:0): 0.41 *
  Sphingomyelin (d18:2,C18:0): 0.26 *
  TAG No 02: 0.74 *
  myo-Inositol, lipid fraction: 0.29 *
m14, Table 14b
  Cholesterol: 0.22
  Choline plasmalogen No 02: 0.52
  Lignoceric acid (C24:0): 0.17
  Sphingomyelin (d18:1, C16:0): 0.22
  Sphingomyelin (d18:2, C16:0): 0.18
  erythro-Sphingosine (d18:1): 0.06
m28, male rats
  Mannose: 1.31 *
m28, male rats, Table 16
  3,4-Dihydroxyphenylacetic acid (DOPAC): 0.54 *
  3,4-Dihydroxyphenylglycol (DOPEG): 0.72 *
  Androstenedione: 0.02 *
  Citrate: 1.03
  Glycerol, polar fraction: 0.61 *
  Histamine: 0.65 *
  Ketoleucine: 0.72 *
  Lactate: 0.76 *
  Metanephrine: 0.66 *
  Pantothenic acid: 0.77 *
  Phosphatidylcholine (C18:1,C18:2): 0.96
  Phosphatidylcholine No 04: 0.81 *
  TAG (C18:1,C18:2): 1.26
  Testosterone: 0.06 *
  Tyrosine: 0.82 *
m28, male rats, Table 15d
  3,4-Dihydroxyphenylacetic acid (DOPAC): 0.54 *
  18-Hydroxy-11-deoxycorticosterone: 0.52 *
  Glycerol phosphate, lipid fraction: 0.61 *
  Homovanillic acid (HVA): 0.49 *
  Kynurenic acid: 0.72 *
  Lysophosphatidylcholine (C18:1): 0.92
  Lysophosphatidylethanolamine (C22:5): 0.8
  Phosphate, lipid fraction: 0.66 *
  Phosphatidylcholine (C18:0,C18:1): 0.87
  Sphingomyelin (d18:1, C16:0): 0.35 *
  Sphingomyelin (d18:1,C23:0): 0.55 *
  Sphingomyelin (d18:1,C24:0): 0.54 *
  Sphingomyelin (d18:2,C18:0): 0.35 *
  TAG No 02: 0.51 *
  myo-Inositol, lipid fraction: 0.54 *
m28, Table 14b
  Cholesterol: 0.4
  Choline plasmalogen No 02: 0.55
  Lignoceric acid (C24:0): 0.35
  Sphingomyelin (d18:1, C16:0): 0.35
  Sphingomyelin (d18:2, C16:0): 0.28
  erythro-Sphingosine (d18:1): 0.21
